Test results taken from ChEMBL document CHEMBL4052765, “Synthesis and antibacterial evaluation of novel 11-O-carbamoyl clarithromycin ketolides” (2017).
Values after ≈ are worked out from the molar mass of the structure shown.

What was measured:
Format in all cases: functional
Streptococcus pneumoniae [1] = experiment: Antibacterial activity against erythromycin-resistant Streptococcus pneumoniae A22072 harboring mef gene after 24 h by NCCLS broth microdilution method; details: A22072, 24 h
Streptococcus pneumoniae [2] = experiment: Antibacterial activity against erythromycin-resistant Streptococcus pneumoniae B1 harboring erm gene after 24 h by NCCLS broth microdilution method; details: B1, 24 h
Streptococcus pneumoniae [3] = experiment: Antibacterial activity against erythromycin-resistant Streptococcus pneumoniae AB11 harboring harboring mef and erm gene after 24 h by NCCLS broth microdilution method; details: AB11, 24 h
Staphylococcus aureus [4] = experiment: Antibacterial activity against […] Staphylococcus aureus ATCC 29213 after 24 h by NCCLS broth microdilution method; details: ATCC 29213, 24 h
Pseudomonas aeruginosa = experiment: Antibacterial activity against penicillin-susceptible Pseudomonas aeruginosa ATCC 27853 after 24 h by NCCLS broth microdilution method; details: ATCC 27853, 24 h
Escherichia coli = experiment: Antibacterial activity against penicillin-susceptible Escherichia coli ATCC 25922 after 24 h by NCCLS broth microdilution method; details: ATCC 25922, 24 h
Streptococcus pneumoniae [5] = experiment: Potency index, ratio of clarithromycin MIC to compound MIC against erythromycin-resistant Streptococcus pneumoniae A22072
Streptococcus pyogenes [6] = experiment: Antibacterial activity against erythromycin-susceptible Streptococcus pyogenes after 24 h by NCCLS broth microdilution method
Staphylococcus aureus [7] = experiment: Antibacterial activity against erythromycin-susceptible Staphylococcus aureus ATCC 25923 after 24 h by NCCLS broth microdilution method; details: ATCC 25923, 24 h
Bacillus subtilis = experiment: Antibacterial activity against penicillin-susceptible Bacillus subtilis ATCC 9372 after 24 h by NCCLS broth microdilution method; details: ATCC 9372, 24 h
Streptococcus pneumoniae [8] = experiment: Potency index, ratio of azithromycin MIC to compound MIC against erythromycin-resistant Streptococcus pneumoniae A22072
Streptococcus pyogenes [9] = experiment: Antibacterial activity against erythromycin-resistant Streptococcus pyogenes R1 after 24 h by NCCLS broth microdilution method; details: R1, 24 h
Staphylococcus aureus [10] = experiment: Potency index, ratio of clarithromycin MIC to compound MIC against […] Staphylococcus aureus ATCC 29213

SMILES | MIC (Streptococcus pneumoniae [1]) [µg/mL] | MIC (Streptococcus pneumoniae [2]) [µg/mL] | MIC (Streptococcus pneumoniae [3]) [µg/mL] | MIC (Staphylococcus aureus [4]) [µg/mL] | MIC (Pseudomonas aeruginosa) [µg/mL] | MIC (Escherichia coli) [µg/mL] | Ratio (Streptococcus pneumoniae [5]) | MIC (Streptococcus pyogenes [6]) [µg/mL] | MIC (Staphylococcus aureus [7]) [µg/mL] | MIC (Bacillus subtilis) [µg/mL] | Ratio (Streptococcus pneumoniae [8]) | MIC (Streptococcus pyogenes [9]) [µg/mL] | Ratio (Staphylococcus aureus [10])
CC[C@H]1OC(=O)[C@H](C)C(=O)[C@H](C)[C@@H](O[C@@H]2O[C@H](C)C[C@H](N(C)C)[C@H]2O)[C@](C)(OC)C[C@@H](C)C(=O)[C@H](C)[C@@H](OC(=O)NCCNC(=O)c2ccc([N+](=O)[O-])cc2N)[C@]1(C)O | 0.5 (≈ 0.597 µM) | 128 (≈ 153 µM) | 64 (≈ 76.4 µM) | 128 (≈ 153 µM) | > 128 | 128 (≈ 153 µM) | 8 | 0.5 (≈ 0.597 µM) | 8 (≈ 9.55 µM) | 1 (≈ 1.19 µM) | 4 | > 128 | –
CC[C@H]1OC(=O)[C@H](C)C(=O)[C@H](C)[C@@H](O[C@@H]2O[C@H](C)C[C@H](N(C)C)[C@H]2O)[C@](C)(OC)C[C@@H](C)C(=O)[C@H](C)[C@@H](OC(=O)NCCNC(=O)/C=C/c2ccc(Cl)cc2)[C@]1(C)O | 0.5 (≈ 0.596 µM) | 128 (≈ 153 µM) | 128 (≈ 153 µM) | 64 (≈ 76.3 µM) | > 128 | > 128 | 8 | 2 (≈ 2.39 µM) | 16 (≈ 19.1 µM) | 4 (≈ 4.77 µM) | 4 | > 128 | –
CC[C@H]1OC(=O)[C@H](C)C(=O)[C@H](C)[C@@H](O[C@@H]2O[C@H](C)C[C@H](N(C)C)[C@H]2O)[C@](C)(OC)C[C@@H](C)C(=O)[C@H](C)[C@@H](OC(=O)NCCNC(=O)/C=C/c2ccco2)[C@]1(C)O | 1 (≈ 1.26 µM) | 128 (≈ 161 µM) | 128 (≈ 161 µM) | 16 (≈ 20.2 µM) | 128 (≈ 161 µM) | 128 (≈ 161 µM) | – | 4 (≈ 5.04 µM) | 64 (≈ 80.6 µM) | 8 (≈ 10.1 µM) | – | > 128 | 4
CC[C@H]1OC(=O)[C@H](C)C(=O)[C@H](C)[C@@H](O[C@@H]2O[C@H](C)C[C@H](N(C)C)[C@H]2O)[C@](C)(OC)C[C@@H](C)C(=O)[C@H](C)[C@@H](OC(=O)NCCNC(=O)c2cc([N+](=O)[O-])cc([N+](=O)[O-])c2)[C@]1(C)O | 0.5 (≈ 0.576 µM) | 128 (≈ 147 µM) | 64 (≈ 73.7 µM) | 128 (≈ 147 µM) | 128 (≈ 147 µM) | 128 (≈ 147 µM) | 8 | 0.125 (≈ 0.144 µM) | 8 (≈ 9.22 µM) | 1 (≈ 1.15 µM) | 4 | 128 (≈ 147 µM) | –
